# Source: paper PMC9820303, “^αN-Acetyl β-Endorphin Is an Endogenous Ligand of σ1Rs That Regulates Mu-Opioid Receptor Signaling by Exchanging G Proteins for σ2Rs in σ1R Oligomers” (International Journal of Molecular Sciences, 2022)
# No end group written: not given here.
# Tests used:
# [1] = target: T1, σ1R-BiP (Mus musculus, UniProt O55242); test: In vitro σ1R-BiP association of recombinant proteins (Western blot); type: biochemical; conditions: for effect on σ1R-BiP association: increasing concentrations, 30 min RT, vs control without ligand; for activity at σ1R-BiP against agonists / β-End 1–31: 1 nM β-End 1–31 with increasing competitor (Figure S10)
# T1 construct: The coding region of the full-length murine σ1R (AF004927); GST (N, cleaved yes); host or cells: E. coli BL21 (KRX) for σ1R
# T1 sequence (O55242 whole entry): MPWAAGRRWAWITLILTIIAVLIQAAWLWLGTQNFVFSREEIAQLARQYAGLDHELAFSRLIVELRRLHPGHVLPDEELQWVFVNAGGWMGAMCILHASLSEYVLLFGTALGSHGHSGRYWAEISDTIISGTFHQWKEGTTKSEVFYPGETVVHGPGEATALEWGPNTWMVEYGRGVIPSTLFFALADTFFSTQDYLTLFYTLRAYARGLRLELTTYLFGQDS
# Procedure: (§1) Figure 7 Effect of β-End 1–31, ^αN-acetyl β-End 1–31 and their N-terminal derivatives on σ1R-σ2R, σ1R-NR1 C1 and σ1R-BiP associations. Amino acid sequence of β-End 1–31 showing derivatives 1–26 and 1–27. (A) HaloLink-attached σ2Rs were incubated for 30 min at RT in the presence of σ1Rs (100 nM) in 300 μL of 50 mM Tris-HCl (pH 7.4), 0.2% CHAPS, and 2.5 mM CaCl2. After removing the unbound σ1R proteins, the effects of increasing the peptide concentrations on σ1R-σ2R associations were studied. At the end of the incubation, protein complexes bound to HaloLink-σ2R were obtained by centrifugation, washed three times, solubilized in 2× Laemmli buffer containing β-mercaptoethanol, resolved by SDS-PAGE, and analyzed by Western blotting (for more details, see Section 4). This protocol was also used to assess the effect of ligands on (B) σ1R-NR1 C1 and (C) σ1R-BiP associations. Data were compared to that of the control, which was obtained in the absence of ligands. (A–C) Data are the mean ± SD, n = 3. (D) The β-End 1–31 structural models were predicted by Novafold (DNASTAR Lasergene protein v.17, Inc., Madison, WI, USA). Ribbon model: The 3D structure, charge distribution and hydrophobicity map of β-End 1–31 are shown. Positive charges are shown in red and negative charges in blue. Polar surfaces are shown in yellow, and nonpolar surfaces are shown in orange. Linear model: the opioid (1–5) and flexible region (8–11) sequences are shown in green and orange, respectively, and the amphiphilic helix (15–25) is shown in pink.
# (§2) The recombinant σ1R (100 nM) was incubated either with Haloprotein (negative control) or together with the immobilized σ2R, NR1 C0-C1-C2 or BiP proteins in 300 µL of a buffer containing 50 mM Tris-HCl (pH 7.4) and 0.2% CHAPS in the presence of 2.5 mM CaCl2 for 30 min at RT. After removal of the unbound σ1R, the agarose-attached complexes were incubated for 30 min with rotation at RT in the presence of increasing concentrations of the ligands in a final reaction volume of 300 µL [50 mM Tris-HCl (pH 7.4), 2.5 mM CaCl2 and 0.2% CHAPS]. Ligands were usually dissolved in aqueous solutions; however, when an organic solvent such as DMSO was required to incorporate, e.g., pregnenolone sulfate, the solvent remained below 1% in the assay buffer. Agarose pellets containing the bound proteins were obtained by centrifugation, washed and resuspended thrice in the presence of 2.5 mM CaCl2, solubilized in 2× Laemmli buffer plus β-mercaptoethanol, and analyzed by Western blotting.
# (§3) Because all the assays were performed with recombinant proteins, the immune signals provided a single band of the expected size, which was used for the subsequent densitometry analysis. Accordingly, no other regions of the blots provided information and were routinely excluded from the analysis.
# Figure S8. Effect of the physiological and nonphysiological sequences of β-End 1-31 and classical σ1R ligands on BiP-σ1R, σ2R-σ1R and NR1 C1-σ1R associations . Agarose-BiP was loaded with σ1Rs, and after the unbound σ1Rs were removed, the agarose-BiP-σ1R complexes were incubated in the absence (control) and presence of increasing concentrations of (A) β-End 1-31 C-terminal physiological derivatives and (B) classical σ1R ligands. C) Agarose-σ2R loaded with σ1Rs was incubated in the absence (control) and with nonphysiological derivatives of β-End 1-31. D) Agarose-NR1 C1 loaded with σ1Rs were incubated in the absence (control) and with nonphysiological derivatives of β-End 1-31. A-D) The σ1Rs that remained attached to the agarose complexes were evaluated by Western blotting. The […]
# (§4) (1 picture or pasted object on this page, not shown here)
# Figure S10. Effect of σ1R agonist/antagonist ligands on σ1R-BiP associations. Agarose-attached BiP proteins were incubated for 30 min in the presence of recombinant σ1R (100 nM) proteins in 300 μL of 50 mM Tris-HCl (pH 7.4), 0.2% CHAPS, and 2.5 mM CaCl2. After the unbound σ1R proteins were […]
# [2] = target: σ1R-σ2R (Mus musculus, UniProt O55242); test: In vitro σ1R-σ2R association of recombinant proteins (HaloLink-σ2R, Western blot); type: biochemical, murine; set-up: The coding region of the full-length murine σ1R (AF004927); GST (N, cleaved yes); made in house; host or cells: E. coli BL21 (KRX); conditions: increasing concentrations; 30 min RT; vs control without ligand
# Chain of σ1R-σ2R (O55242 whole entry): as above
# Procedure: as §1, §2, §3
# Figure S7. Effect of σ1R agonist/antagonist ligands on σ1R-σ2R heterodimers. (A-C) Agarose (Θ)- attached σ2Rs captured recombinant σ1Rs. After removing unbound σ1R proteins, the Θ-σ2R.σ1R complexes were incubated with a ﬁxed concentration of a selected L1 ligand (indicated in brackets) in the absence and presence of increasing concentrations of competing σ1R ligands as indicated. The σ1Rs that remained attached to the Θ-σ2Rs were evaluated by Western blotting. * Signiﬁcant differences with respect to the control group that was incubated without L1 ligands. ANOVA followed by the Holm-Sidak multiple comparisons test, p < 0.05. For details, see Methods and Figure 6A. Representative blots are […]
# Figure S8. Effect of the physiological and nonphysiological sequences of β-End 1-31 and classical σ1R ligands on BiP-σ1R, σ2R-σ1R and NR1 C1-σ1R associations . Agarose-BiP was loaded with σ1Rs, and after the unbound σ1Rs were removed, the agarose-BiP-σ1R complexes were incubated in the absence (control) and presence of increasing concentrations of (A) β-End 1-31 C-terminal physiological derivatives and (B) classical σ1R ligands. C) Agarose-σ2R loaded with σ1Rs was incubated in the […]
# [3] = target: T2, σ1R-NR1 C1 (Mus musculus, UniProt O55242); test: In vitro σ1R-NR1 C1 association of recombinant proteins (Western blot); type: biochemical, murine; conditions: increasing concentrations; 30 min RT; vs control without ligand
# T2 construct: The coding region of the full-length murine σ1R (AF004927); GST (N, cleaved yes); made in house; host or cells: E. coli BL21 (KRX)
# T2 sequence (O55242 whole entry): as above
# Procedure: as §1, §2, §3
# Figure S8. Effect of the physiological and nonphysiological sequences of β-End 1-31 and classical σ1R ligands on BiP-σ1R, σ2R-σ1R and NR1 C1-σ1R associations . […]
# D) Agarose-NR1 C1 loaded with […]
# σ1Rs were incubated in the absence (control) and with nonphysiological derivatives of β-End 1-31. A-D) The σ1Rs that remained attached to the agarose complexes were evaluated by Western blotting. The […]
# as §4
# Figure S9. Effect of σ1R agonist/antagonist ligands on σ1R-NR1 C1 associations. Θ-Agarose-NR1 C1 was loaded with recombinant σ1Rs. After unbound σ1R proteins were removed, the complexes were incubated with (A) 1 nM β-End 1-31, (B) αN-acetyl β-End 1-31, (C-D) β-End 28-31 in the absence (black columns) and presence of (A) 10 nM or (B-D) increasing concentrations of competing σ1R ligands as indicated. The σ1Rs that remained attached to the Θ-σ2Rs were evaluated by Western blotting. The […]
# Prog is progesterone; PregSulfate is pregnenolone sulfate; Nac is […]
compound,measurement,setting,value
"CC(=O)[C@H]1CC[C@H]2[C@@H]3CCC4=CC(=O)CC[C@]4(C)[C@H]3CC[C@]12C [progesterone, Progesterone, reference compound]",effect on σ1R-BiP association,[1],did the opposite
same,effect on σ1R-σ2R association,[2],did the opposite
same,effect on σ1R-NR1 C1 association,[3],did the opposite
"^αN-acetyl β-End 1–27: ^αN-acetylated form of β-End 1–27 (Ac-YGGFMTSEKSQTPLVTLFKNAIIKNAY; UniProt P01189 237-263, looked up, fragment)",activity at σ1R-BiP against agonists / β-End 1–31,[1],antagonist activity
same,effect on σ1R-BiP association,[1],promoted σ1R-BiP complexes
Pregnenolone sulfate [reference compound],effect on σ1R-BiP association,[1],impaired σ1R associations with σ2R and BiP
same,effect on σ1R-σ2R association,[2],impaired σ1R associations with σ2R and BiP
same,effect on σ1R-NR1 C1 association,[3],increased σ1R-NR1 C1 complexes
"^αN-acetyl β-End 1–26: ^αN-acetylated form of β-End 1–26 (Ac-YGGFMTSEKSQTPLVTLFKNAIIKNA; UniProt P01189 237-262, looked up, fragment)",activity at σ1R-BiP against agonists / β-End 1–31,[1],antagonist activity
same,effect on σ1R-BiP association,[1],promoted σ1R-BiP complexes
same,effect on σ1R-NR1 C1 association,[3],separated σ1Rs from NR1 C1 subunits at pM concentrations
